Where two headings read alike, the source gives them in different places.
Tests used:
[1] = test system: IL-2 stimulated STAT5 phosphorylation in Tall-1 human T cell line; assay: Inhibition of IL-2 stimulated pSTAT5 in Tall-1 T cells; assay type: cell-based; settings: TALL-1, 0.5 h, read-out: Tall-1 pIC50 (converted)
Experimental: Assay 2: Inhibition of IL-2 Stimulated pSTAT5 in Tall-1 T Cells
The potency of test compounds for inhibition of interleukin-2 (IL-2) stimulated STAT5 phosphorylation was measured in the Tall-1 human T cell line (DSMZ) using AlphaLisa.
Phosphorylated STAT5 was measured via the AlphaLISA SureFire Ultra pSTAT5 (Tyr694/699) kit (PerkinElmer).
Compounds were serially diluted in DMSO and dispensed acoustically to empty wells. Assay media (phenol red-free DMEM (Life Technologies) supplemented with 10% FBS (ATCC)) was dispensed (4 μL/well) and plates shaken at 900 rpm for 10 mins. Cells were seeded at 45,000 cells/well in assay media (4 μL/well), and incubated at 37° C., 5% CO2 for 1 hour, followed by the addition of IL-2 (R&D Systems; final concentration 300 ng/mL) in pre-warmed assay media (4 μL) for 30 minutes. […] The lysate was shaken at 900 rpm for 10 minutes at room temperature (RT). Phosphorylated STAT5 was measured via the pSTAT5 AlphaLisa kit (PerkinElmer). Freshly prepared acceptor bead mixture was dispensed onto lysate (5 μL) under green filtered <100 lux light. Plates were shaken at 900 rpm for 2 mins, briefly spun down, and incubated for 2 hrs at RT in the dark. Donor beads were dispensed (5 μL) under green filtered <100 lux light. Plates were shaken at 900 rpm for 2 minutes, briefly spun down, and incubated overnight at RT in the dark. Luminescence was measured with excitation at 689 nm and emission at 570 nm using an EnVision plate reader (PerkinElmer) under green filtered <100 lux light.
To determine the inhibitory potency of test compounds in response to IL-2, the average emission intensity of beads bound to pSTAT5 was measured in a human T cell line. IC50 values were determined from analysis of the inhibition curves of signal intensity versus compound concentration. Data are expressed as pIC50 (negative decadic logarithm IC50) values (mean±standard deviation).

JAK2 = JAK2 (Homo sapiens (Human), UniProt O60674); assay: Biochemical JAK kinase assay (LanthaScreen), JAK2
Experimental: (§1) Assay 1: Biochemical JAK Kinase Assays
(§2) A panel of four LanthaScreen JAK biochemical assays (JAK1, 2, 3 and Tyk2) were carried in a common kinase reaction buffer (50 mM HEPES, pH 7.5, 0.01% Brij-35, 10 mM MgCl2, and 1 mM EGTA). Recombinant GST-tagged JAK enzymes and a GFP-tagged STAT1 peptide substrate were obtained from Life Technologies.
(§3) Serially diluted compounds were pre-incubated with each of the four JAK enzymes and the substrate in white 384-well microplates (Corning) at ambient temperature for 1 h. ATP was subsequently added to initiate the kinase reactions in 10 μL total volume, with 1% DMSO. […] Kinase reactions were allowed to proceed for 1 hour at ambient temperature before a 10 μL preparation of EDTA (10 mM final concentration) and Tb-anti-pSTAT1 (pTyr701) antibody (Life Technologies, 2 nM final concentration) in TR-FRET dilution buffer (Life Technologies) was added. The plates were allowed to incubate at ambient temperature for 1 h before being read on the EnVision reader (Perkin Elmer). Emission ratio signals (520 nm/495 nm) were recorded and utilized to calculate the percent inhibition values based on DMSO and background controls.
(§4) For dose-response analysis, percent inhibition data were plotted vs. compound concentrations, and IC50 values were determined from a 4-parameter robust fit model with the Prism software (GraphPad Software). Results were expressed as pIC50 (negative logarithm of IC50) and subsequently converted to pKi (negative logarithm of dissociation constant, Ki) using the Cheng-Prusoff equation.

[2] = Lung and plasma drug concentration in the murine IL-13 pSTAT6 model; assay type: in vivo; settings: mouse, other: oral aspiration, 50 µg/mouse; for Kp at 5 h: Balb/c, lung ng/g to plasma ng/mL at 5 hours, mice, oral aspiration, read-out: Lung to Plasma ratio at 5 hr; for concentration at 5 h: Balb/c mice, 1 mg/mL, 50 μL oral aspiration, 5 hr post dose
Experimental: (§5) Assay 3: Murine (Mouse) Model of IL-13 Induced pSTAT6 Induction in Lung Tissue
Adult Balb/c mice from Harlan were used in the assay. […] Animals were placed in lateral recumbency post dose and monitored for full recovery from anesthesia before being returned to their home cage. Four hours later, animals were once again briefly anesthetized and challenged with either vehicle or IL-13 (0.03 μg total dose delivered, 50 μL total volume) via oral aspiration before being monitored for recovery from anesthesia and returned to their home cage. One hour after vehicle or IL-13 administration, whole blood and lungs were collected for both pSTAT6 detection in lung homogenates using a Perkin Elmer AlphaLISA® SureFire® Ultra™ HV p-STAT6 (Tyr641) assay kit and for total drug concentration analysis in both lung and plasma. Blood samples were centrifuged (Eppendorf centrifuge, 5804R) for 4 minutes at approximately 12,000 rpm at 4° C. to collect plasma. […] Plasma and lung levels of test compound were determined by LC-MS analysis against analytical standards constructed into a standard curve in the test matrix. A lung to plasma ratio was determined as the ratio of the lung concentration in ng/g to the plasma concentration in ng/mL at 5 hours.

JAK3 = JAK3 (Homo sapiens (Human), UniProt P52333); assay type: biochemical
Experimental: as §1, §2, §3, §4

[3] = test system: IL-13 induced pSTAT6 in lung tissue; assay: Murine model of IL-13 induced pSTAT6 induction in lung tissue; assay type: in vivo, mouse; settings: Balb/c mice, 1 mg/mL, 50 μL oral aspiration; IL-13 challenge 4 hours after compound; lung homogenate
Experimental: as §5
IL-13 binds to cell surface receptors activating members of the Janus family of kinases (JAK) which then phosphorylate STAT6 and subsequently activates further transcription pathways. In the described model, a dose of IL-13 was delivered locally into the lungs of mice to induce the phosphorylation of STAT6 (pSTAT6) which is then measured as the endpoint.
Activity in the model is evidenced by a decrease in the level of pSTAT6 present in the lungs of treated animals at 5 hours compared to the vehicle treated, IL-13 challenged control animals. The difference between the control animals which were vehicle-treated, IL-13 challenged and the control animals which were vehicle-treated, vehicle challenged dictated the 0% and 100% inhibitory effect, respectively, in any given experiment.

[4] = Pharmacokinetics in plasma and lung in mouse; assay type: in vivo; settings: BALB/c mice, single oral aspiration, 0.2 mg/mL, 50 μL; for Kp / AUC(0-t): mouse, other: oral aspiration into the trachea, 10 µg/mouse; for Kp: lung / plasma, read-out: Lung Tissue:Plasma AUC ratio; for AUC(0-t): plasma, read-out: Plasma AUC(0-24)
Experimental: Assay 6: Pharmacokinetics in Plasma and Lung in Mouse
Plasma and lung concentrations of test compounds and ratios thereof were determined in the following manner. BALB/c mice from Charles River Laboratories were used in the assay. Test compounds were individually formulated in 20% propylene glycol in pH 4 citrate buffer at a concentration of 0.2 mg/mL and 50 μL of the dosing solution was introduced into the trachea of a mouse by oral aspiration. At various time points (typically 0.167, 2, 6, 24 hr) post dosing, blood samples were removed via cardiac puncture and intact lungs were excised from the mice.

Tyk2 = Tyk2 (Homo sapiens (Human), UniProt P29597); assay: Biochemical JAK kinase assay (LanthaScreen), Tyk2
Experimental: as §1, §2, §3, §4

[5] = lung, read-out: Lung Concentration (ng/g) at 5 hr
[6] = plasma, read-out: Plasma Concentration (ng/mL) at 5 hr

Chain of JAK3 (P52333 whole entry): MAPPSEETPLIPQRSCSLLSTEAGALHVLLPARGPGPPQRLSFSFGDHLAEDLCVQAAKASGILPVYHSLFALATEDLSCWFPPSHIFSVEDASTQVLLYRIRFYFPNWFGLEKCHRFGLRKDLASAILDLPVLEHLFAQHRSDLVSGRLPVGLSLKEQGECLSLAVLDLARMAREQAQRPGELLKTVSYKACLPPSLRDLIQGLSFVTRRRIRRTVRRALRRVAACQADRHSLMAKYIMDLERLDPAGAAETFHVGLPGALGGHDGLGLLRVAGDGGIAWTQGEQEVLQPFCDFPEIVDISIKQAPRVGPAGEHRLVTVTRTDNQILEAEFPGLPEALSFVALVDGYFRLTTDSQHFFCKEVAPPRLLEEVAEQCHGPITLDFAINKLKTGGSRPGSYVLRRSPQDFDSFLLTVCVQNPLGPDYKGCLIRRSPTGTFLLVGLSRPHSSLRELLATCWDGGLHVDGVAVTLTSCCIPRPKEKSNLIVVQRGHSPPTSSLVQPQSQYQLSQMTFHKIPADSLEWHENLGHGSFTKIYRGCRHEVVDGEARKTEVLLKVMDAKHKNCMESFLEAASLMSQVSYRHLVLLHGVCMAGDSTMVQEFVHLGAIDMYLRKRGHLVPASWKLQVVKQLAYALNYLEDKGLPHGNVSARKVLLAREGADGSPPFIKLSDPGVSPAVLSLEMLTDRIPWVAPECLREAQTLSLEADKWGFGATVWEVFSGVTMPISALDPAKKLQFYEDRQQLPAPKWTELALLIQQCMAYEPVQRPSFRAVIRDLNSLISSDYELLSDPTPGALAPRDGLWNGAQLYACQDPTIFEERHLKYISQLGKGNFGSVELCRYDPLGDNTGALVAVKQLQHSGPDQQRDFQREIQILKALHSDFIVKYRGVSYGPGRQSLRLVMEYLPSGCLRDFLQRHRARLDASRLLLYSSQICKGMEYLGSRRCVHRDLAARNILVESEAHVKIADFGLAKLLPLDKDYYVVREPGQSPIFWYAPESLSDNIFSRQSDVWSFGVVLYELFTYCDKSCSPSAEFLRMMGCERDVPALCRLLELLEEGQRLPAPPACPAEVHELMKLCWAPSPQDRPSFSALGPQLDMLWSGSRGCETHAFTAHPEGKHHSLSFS
Chain of Tyk2 (P29597 whole entry): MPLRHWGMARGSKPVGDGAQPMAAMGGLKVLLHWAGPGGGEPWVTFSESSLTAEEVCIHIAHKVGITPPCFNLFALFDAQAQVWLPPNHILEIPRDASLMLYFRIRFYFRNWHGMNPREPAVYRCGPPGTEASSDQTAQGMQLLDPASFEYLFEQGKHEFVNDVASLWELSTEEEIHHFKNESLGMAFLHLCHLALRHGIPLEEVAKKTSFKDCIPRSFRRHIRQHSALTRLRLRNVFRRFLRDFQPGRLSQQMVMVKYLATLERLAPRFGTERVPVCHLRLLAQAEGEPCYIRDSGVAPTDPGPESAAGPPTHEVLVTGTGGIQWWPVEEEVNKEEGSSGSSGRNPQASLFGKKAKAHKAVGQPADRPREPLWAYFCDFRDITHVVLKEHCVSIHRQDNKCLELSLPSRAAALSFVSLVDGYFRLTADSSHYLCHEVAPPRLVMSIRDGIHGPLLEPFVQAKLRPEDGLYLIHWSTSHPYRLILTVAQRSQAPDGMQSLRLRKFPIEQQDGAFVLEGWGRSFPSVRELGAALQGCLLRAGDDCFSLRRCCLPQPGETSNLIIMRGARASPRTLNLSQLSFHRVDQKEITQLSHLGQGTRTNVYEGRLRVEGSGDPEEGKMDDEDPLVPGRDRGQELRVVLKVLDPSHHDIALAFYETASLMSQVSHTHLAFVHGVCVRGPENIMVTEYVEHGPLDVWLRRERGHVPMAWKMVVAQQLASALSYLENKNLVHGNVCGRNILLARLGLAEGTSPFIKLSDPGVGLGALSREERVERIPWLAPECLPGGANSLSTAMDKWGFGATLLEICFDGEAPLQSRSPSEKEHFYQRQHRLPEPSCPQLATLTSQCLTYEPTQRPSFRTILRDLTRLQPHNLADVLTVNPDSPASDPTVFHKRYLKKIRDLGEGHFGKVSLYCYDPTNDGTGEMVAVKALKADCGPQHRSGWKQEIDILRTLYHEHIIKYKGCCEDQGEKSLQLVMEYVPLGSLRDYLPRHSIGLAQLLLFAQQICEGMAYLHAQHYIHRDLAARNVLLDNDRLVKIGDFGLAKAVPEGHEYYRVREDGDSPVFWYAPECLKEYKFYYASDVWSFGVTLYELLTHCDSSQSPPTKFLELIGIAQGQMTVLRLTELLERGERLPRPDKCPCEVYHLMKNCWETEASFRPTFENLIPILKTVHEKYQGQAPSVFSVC
Chain of JAK2 (O60674 whole entry): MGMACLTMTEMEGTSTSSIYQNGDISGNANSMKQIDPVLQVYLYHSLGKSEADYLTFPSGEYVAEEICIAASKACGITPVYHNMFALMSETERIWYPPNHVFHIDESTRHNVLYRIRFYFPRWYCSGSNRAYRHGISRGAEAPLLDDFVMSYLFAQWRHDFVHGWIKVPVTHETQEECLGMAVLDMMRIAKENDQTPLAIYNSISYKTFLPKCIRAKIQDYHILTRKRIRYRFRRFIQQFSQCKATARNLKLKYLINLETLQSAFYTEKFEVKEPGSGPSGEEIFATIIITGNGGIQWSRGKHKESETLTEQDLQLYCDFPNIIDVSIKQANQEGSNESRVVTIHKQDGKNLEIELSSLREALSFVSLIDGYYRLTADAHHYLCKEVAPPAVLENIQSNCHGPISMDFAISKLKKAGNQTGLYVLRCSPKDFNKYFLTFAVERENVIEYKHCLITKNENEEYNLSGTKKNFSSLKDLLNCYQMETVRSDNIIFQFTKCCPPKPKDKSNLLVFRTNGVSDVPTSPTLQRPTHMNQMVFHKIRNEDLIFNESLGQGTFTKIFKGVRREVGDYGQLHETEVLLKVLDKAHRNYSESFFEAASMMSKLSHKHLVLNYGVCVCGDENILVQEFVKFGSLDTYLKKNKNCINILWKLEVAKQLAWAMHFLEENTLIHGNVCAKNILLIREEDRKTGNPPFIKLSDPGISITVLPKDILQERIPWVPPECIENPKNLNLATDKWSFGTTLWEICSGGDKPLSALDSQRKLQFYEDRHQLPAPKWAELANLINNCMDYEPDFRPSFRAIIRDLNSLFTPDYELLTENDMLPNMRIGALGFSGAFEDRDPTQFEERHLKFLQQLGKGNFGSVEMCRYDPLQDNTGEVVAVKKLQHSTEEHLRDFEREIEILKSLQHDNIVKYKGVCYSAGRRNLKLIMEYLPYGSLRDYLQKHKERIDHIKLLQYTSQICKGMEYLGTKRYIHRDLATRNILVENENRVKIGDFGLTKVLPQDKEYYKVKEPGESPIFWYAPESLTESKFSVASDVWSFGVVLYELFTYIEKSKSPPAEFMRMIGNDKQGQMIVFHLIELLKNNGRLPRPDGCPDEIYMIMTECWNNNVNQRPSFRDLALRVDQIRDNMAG

| Structure (SMILES) | IC50 [1] [nM] | JAK2 pKi (JAK2) | Kp at 5 h [2] | concentration at 5 h [2, 5] [ng/g] | concentration at 5 h [2, 6] [ng/mL] | JAK3 PKi (JAK3) | pSTAT6 inhibition at 5 hours [3] [%] | Lung Tissue AUC(0-24) [4] [µg·h/g] | Kp [4] | AUC(0-t) [4] [ng·h/mL] | Tyk2 pKi (Tyk2) | IC50 ([1]; IL-2 300 ng/mL, 30 min, pSTAT5 AlphaLisa) [nM] | JAK2 pKi (JAK2; ATP at Km 3 μM, pIC50 converted with Cheng-Prusoff) | JAK3 PKi (JAK3; ATP at Km 1.6 μM, pIC50 converted with Cheng-Prusoff) | Tyk2 pKi (Tyk2; ATP at Km 10 μM, pIC50 converted with Cheng-Prusoff) |
| --- | --- | --- | --- | --- | --- | --- | --- | --- | --- | --- | --- | --- | --- | --- | --- |
| CCc1cc(O)ccc1-c1ccc2c(-c3nc4c([nH]3)CN(C)[C@H](C(=O)N3CCN(CCO)C[C@H]3C)C4)n[nH]c2c1 [Compound 5, ((S)-2-(6-(2-ethyl-4-hydroxyphenyl)-1H-indazol-3-yl)-5-methyl-4,5,6,7-tetrahydro-3H-imidazo[4,5-c]pyridin-6-yl)((R)-4-(2-hydroxyethyl)-2-methylpiperazin-1-yl)methanone] | 1.58 | 10.5 | 418 | 5440 ± 1860 | 13 ± 3.7 | 10.1 | 73 | 29.9 | 49.9 | 599 | 9.2 | – | – | – | – |
| CCCN1Cc2[nH]c(-c3n[nH]c4cc(-c5ccc(O)cc5CC)ccc34)nc2C[C@H]1C(=O)N1CCN(CCO)CC1 [Compound 1, (S)-(2-(6-(2-ethyl-4-hydroxyphenyl)-1H-indazol-3-yl)-5-propyl-4,5,6,7-tetrahydro-3H-imidazo[4,5-c]pyridin-6-yl)(4-(2-hydroxyethyl)piperazin-1-yl)methanone] | – | – | 1260 | 13000 ± 5720 | 10.3 ± 3.9 | – | 67 | 64.6 | 111 | 581 | – | 1.58 | 10.3 | 9.8 | 9.0 |
